target: Cathepsin D (Homo sapiens, UniProt P07339); test: Inhibitory activity of compound against human Cathepsin D
Sequence (P07339 65-162 limits assumed): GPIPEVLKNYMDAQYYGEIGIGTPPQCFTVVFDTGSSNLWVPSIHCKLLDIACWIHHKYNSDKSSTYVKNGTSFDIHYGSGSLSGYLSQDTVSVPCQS
Sequence (P07339 169-412 limits assumed): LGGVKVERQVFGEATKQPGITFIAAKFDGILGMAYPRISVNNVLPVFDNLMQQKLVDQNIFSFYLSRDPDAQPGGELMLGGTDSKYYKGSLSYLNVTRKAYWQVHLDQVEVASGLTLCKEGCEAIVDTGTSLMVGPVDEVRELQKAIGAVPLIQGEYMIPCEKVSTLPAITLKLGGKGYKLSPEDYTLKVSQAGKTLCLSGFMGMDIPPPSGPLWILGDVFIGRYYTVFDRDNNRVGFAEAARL

Row | Structure (SMILES) | Ki
1 | COc1cc(Br)c(C(=O)N[C@@H](Cc2ccccc2)[C@@H](O)CN(CCc2ccc(Cl)cc2Cl)C(=O)CCN2C(=O)c3ccccc3C2=O)cc1OC | 5.2 nM
2 | O=C(COc1ccc(Cl)cc1Cl)N[C@@H](Cc1ccccc1)[C@@H](O)CN(CCc1ccc2c(c1)OCO2)C(=O)CCN1C(=O)c2ccccc2C1=O | 3 nM
3 | O=C(COc1cc(Cl)c(Cl)cc1Cl)N[C@@H](Cc1ccccc1)[C@H](O)CN(CCc1ccc2c(c1)OCO2)C(=O)CCN1C(=O)c2ccccc2C1=O | > 5000 nM

Continued, values first:

Row | Ki | Structure (SMILES)
4 | 73 nM | O=C(COc1c(Cl)cc(Cl)cc1Cl)N[C@@H](Cc1ccccc1)[C@@H](O)CN(CCc1ccc2c(c1)OCO2)C(=O)CCN1C(=O)c2ccccc2C1=O
5 | > 100000 nM | O=C(/C=C/c1c(Cl)cccc1Cl)N[C@@H](Cc1ccccc1)[C@@H](O)CN(CCc1ccccn1)C(=O)COc1c(Cl)cc(Cl)cc1Cl
6 | ~10000 nM | O=C(/C=C/c1c(Cl)cccc1Cl)N[C@@H](Cc1ccccc1)[C@@H](O)CN(CCc1cccs1)C(=O)CCc1ccc(Cl)c(Cl)c1
